From patent publication US5795907A, “Gastin and CCK receptor ligands” (James Black Foundation Limited, priority 1994, dated 1998)

Columns and labels:
gastrin = biological target: T1, gastrin (Rattus norvegicus, UniProt P30553); assay: gastrin antagonist activity in an immature rat stomach assay (pentagastrin-stimulated acid secretion); details: cumulative pentagastrin dose-response curves after 60 min with drug; for Kb: read-out: Gastrin pKB (converted)
T1 construct: The stomach was lowered into a jacketed organ bath containing 40 ml of buffered solution; from tissue; host or cells: isolated perfused whole stomach of immature rats (ca. 21 days old)
T1 sequence (P30553 1-452): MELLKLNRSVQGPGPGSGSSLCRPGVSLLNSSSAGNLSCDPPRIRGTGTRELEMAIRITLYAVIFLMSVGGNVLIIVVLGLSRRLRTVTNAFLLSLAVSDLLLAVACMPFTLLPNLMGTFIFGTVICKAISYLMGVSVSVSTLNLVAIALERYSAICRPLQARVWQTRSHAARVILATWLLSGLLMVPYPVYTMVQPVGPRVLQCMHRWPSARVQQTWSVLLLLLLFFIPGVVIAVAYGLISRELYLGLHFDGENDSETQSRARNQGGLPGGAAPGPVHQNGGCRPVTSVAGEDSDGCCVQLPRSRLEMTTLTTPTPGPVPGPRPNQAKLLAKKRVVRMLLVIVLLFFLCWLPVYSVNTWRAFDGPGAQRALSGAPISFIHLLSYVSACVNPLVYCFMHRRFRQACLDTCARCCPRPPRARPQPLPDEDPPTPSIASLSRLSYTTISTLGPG
Method: The compounds of the examples were also tested for gastrin antagonist activity in an immature rat stomach assay. The procedure was as follows:
The oesophagus of immature rats (33-50 g, ca. 21 days old) was ligated at the level of the cardiac sphincter and the duodenal sphincter was cannulated. The stomach was excised and flushed with ca. 1 ml of unbuffered physiological saline solution. The fundus was punctured and cannulated. A further 4-5 ml of unbuffered solution was flushed through the stomach to ensure the preparation was not leaking. The stomach was lowered into a jacketed organ bath containing 40 ml of buffered solution containing 3×10^-8 M 5-methylfurmethide, maintained at 37° and gassed vigorously with 95% O2 /5% CO2. The stomach was continuously perfused at a rate of 1 ml min^-1 with unbuffered solution gassed with 100% O2 with the perfusate passing over an internally referenced pH-electrode fixed 12 cm above the stomach.
After 120 min of stabilisation the drugs were added directly to the serosal solution in the organ bath and after a further 60 min cumulative pentagastrin dose-response curves were started. Changes in acid secretion were monitored and the curves analysed according to Black et.al., Br. J. Pharmacol., 1985, 86, 581.

CCKA = biological target: T2, CCKA (Cavia porcellus, UniProt Q63931); assay: CCKA radioligand binding assay in guinea-pig pancreas membranes ([125I]-CCK8(S)); details: PD134,308 present, 150 minutes at 21±3°; for Ki: read-out: CCKA pKi (converted)
T2 construct: The pancreatata were homogenised in 40 ml ice-cold HEPES buffer using a polytron; from tissue; host or cells: pancreas membranes of male Dunkin Hartley guinea-pigs
T2 sequence (Q63931 1-430): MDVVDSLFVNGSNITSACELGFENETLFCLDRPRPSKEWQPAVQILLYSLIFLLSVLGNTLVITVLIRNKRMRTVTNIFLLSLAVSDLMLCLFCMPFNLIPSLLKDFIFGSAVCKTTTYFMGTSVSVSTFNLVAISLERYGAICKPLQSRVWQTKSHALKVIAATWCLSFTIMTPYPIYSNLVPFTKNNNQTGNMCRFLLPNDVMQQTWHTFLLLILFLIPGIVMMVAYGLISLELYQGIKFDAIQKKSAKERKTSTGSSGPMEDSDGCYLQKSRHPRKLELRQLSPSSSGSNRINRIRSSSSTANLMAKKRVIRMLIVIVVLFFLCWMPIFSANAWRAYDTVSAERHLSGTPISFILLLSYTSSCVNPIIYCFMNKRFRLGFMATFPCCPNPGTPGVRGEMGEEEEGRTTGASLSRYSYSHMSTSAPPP
In short: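 Male guinea-pig pancreas membranes (1 mg/ml wet tissue in HEPES pH 7.2, suspension containing 0.375 μM PD134,308) were incubated 150 min at 21±3° with [125I]-CCK8(S) ([…] added solution) and competitor. Non-specific binding used 100 nM L-364,718 (added solution). Bound radioligand was measured by GF/B filtration and gamma counting.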

CCKB receptor = biological target: T3, CCKB receptor (Mus musculus, UniProt P56481); assay: CCKB receptor radioligand binding assay in mouse cortical membranes ([125I]-CCK8S); details: [125I]-CCK8S 200 pM, 150 min at 21±3°; for Ki: read-out: CCKB pKi (converted)
T3 construct: The cortex was dissected, weighed and homogenised in 40ml ice-cold buffer; tissue Charles River (supplier of the CD1 mice); host or cells: cerebral cortex membranes of male CD1 mice
T3 sequence (P56481 1-453): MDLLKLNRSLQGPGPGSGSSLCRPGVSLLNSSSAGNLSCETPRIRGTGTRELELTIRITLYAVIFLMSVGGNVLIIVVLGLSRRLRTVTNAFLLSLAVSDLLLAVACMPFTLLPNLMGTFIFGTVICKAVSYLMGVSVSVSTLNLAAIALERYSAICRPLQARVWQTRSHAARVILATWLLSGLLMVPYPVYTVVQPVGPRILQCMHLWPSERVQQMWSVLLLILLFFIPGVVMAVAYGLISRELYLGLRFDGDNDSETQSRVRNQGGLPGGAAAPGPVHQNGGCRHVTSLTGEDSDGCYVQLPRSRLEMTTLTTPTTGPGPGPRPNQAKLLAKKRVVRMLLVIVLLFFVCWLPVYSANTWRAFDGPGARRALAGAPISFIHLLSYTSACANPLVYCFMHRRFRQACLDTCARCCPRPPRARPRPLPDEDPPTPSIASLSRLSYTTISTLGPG
In short: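 Cortical membranes from male CD1 mice in HEPES buffer (pH 7.2; NaCl, KCl, MgCl2, EDTA, bacitracin) were incubated with competing compound and [125I]-CCK8S (added as a 200 pM solution) for 150 min at 21±3°. Non-specific binding was defined with L-365,260. Bound tracer was separated by GF/B filtration and counted by gamma counting.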

Molecule | Gastrin pKB (gastrin) | CCKA pKi (CCKA) | CCKB pKi (CCKB receptor) | Kb (gastrin) | Ki (CCKA) | Ki (CCKB receptor)
5-(1S-(3,5-dicarboxyphenylaminocarbonyl)-2-phenylethylaminocarbonyl)-6-(2,2-dimethylpropylaminocarbonyl)-indole and regioisomer with substituents at positions 5 and 6 reversed [Example 46] | 7.1 | 5.1 | 6.7 |  |  | 
5-(1S-(3,5-dicarboxyphenylaminocarbonyl)-2-phenylethylaminocarbonyl)-6-(cycloheptanemethylaminocarbonyl)-indole and regioisomer with substituents at positions 5 and 6 reversed [Example 42] | 9.3 | 5.5 | 7.8 |  |  | 
5-(1S-(3,5-dicarboxyphenylaminocarbonyl)-ethylaminocarbonyl)-6-(cycloheptanemethylaminocarbonyl)-indole and regioisomer with substituents at positions 5 and 6 reversed [Example 58] | 7.5 | 5.0 | 6.5 |  |  | 
5-(1S-(3-methoxycarbonyl-5-carboxy-phenylaminocarbonyl)-2-phenylethylaminocarbonyl)-6-(1-adamantanemethylaminocarbonyl)-indole and regioisomer with substituents at positions 5 and 6 reversed [Example 40] | 7.3 | 6.3 | 6.8 |  |  | 
5-(1S-(3-methoxycarbonyl-5-pivaloyloxymethyloxycarbonyl-phenylaminocarbonyl)-2-phenylethylaminocarbonyl)-6-(1-adamantanemethylaminocarbonyl)-indole and regioisomer with substituents at positions 5 and 6 reversed [Example 39] | 6.8 | 4.9 | 6.4 |  |  | 
5-(1S-(trans 3,4-dicarboxypyrrolidinocarbonyl)-2-phenylethylaminocarbonyl)-6-(1-adamantanemethylaminocarbonyl)-indole and regioisomer with substituents at positions 5 and 6 reversed [Example 50] | 6.9 | 6.1 | 6.6 |  |  | 
5-(2R-(1R-carboxyethylaminocarbonyl)pyrrolidinocarbonyl)-6-(1-adamantanemethylaminocarbonyl)-indole [Example 89] | 6.8 | 5.1 | 6.2 |  |  | 
O=C(O)c1cc(NC(=O)[C@H](Cc2ccccc2)NC(=O)C2Cc3[nH]cnc3CN2C(=O)NCC23CC4CC(CC(C4)C2)C3)cc(C(=O)O)c1 (mixture of isomers) [Example 126, (±)-6-(1S-(3,5-dicarboxyphenylaminocarbonyl)-2-phenylethylaminocarbonyl)-5-(1-adamantanemethylaminocarbonyl)-4,5,6,7-tetrahydro-5-aza-benzimidazole] |  |  |  | 100 nM | 5010 nM | 501 nM
O=C(O)c1cc(NC(=O)C(Cc2ccc(F)cc2F)NC(=O)c2cc3[nH]cnc3cc2C(=O)NCC23CC4CC(CC(C4)C2)C3)cc(C(=O)O)c1 (racemic) [Example 85, (±)-5-(1-(3,5-dicarboxyphenylaminocarbonyl)-2-(2,4-difluorophenyl)ethylaminocarbonyl)-6-(1-adamantanemethylaminocarbonyl)-benzimidazole] |  |  |  | 1.26 nM | 3160 nM | 5.01 nM
